What all share (assay type): cell-based
One data set deals with KCa1.1 (hKCa1.1, KCNMA) (Homo sapiens, UniProt Q12791). Briefly: two-electrode voltage clamp, Xenopus laevis oocytes. To be noted: Kulori solution, pH 7.4; n=5. (In general: Two-electrode voltage clamp is typically applied to oocytes expressing channels or transporters.)
A further data set has as its target TRPM8 (hTRPM8) (Homo sapiens, UniProt Q7Z2W7). Put plainly: Fluo-4 calcium flux assay, HEK-293 TRPM8 cells. The settings on record: antagonist mode; 30 min incubation; normalized to icilin (50 µM) response. (In general: Calcium assays in cells follow changes in intracellular calcium, usually with a dye or a luminescent sensor.)
For another data set, the target named is KV11.1 (hERG) (Homo sapiens, UniProt Q12809). Briefly: automated patch clamp. A general note: In patch-clamp work, channel activity is measured electrically.
Chain of KV11.1 (hERG) (Q12809 whole entry): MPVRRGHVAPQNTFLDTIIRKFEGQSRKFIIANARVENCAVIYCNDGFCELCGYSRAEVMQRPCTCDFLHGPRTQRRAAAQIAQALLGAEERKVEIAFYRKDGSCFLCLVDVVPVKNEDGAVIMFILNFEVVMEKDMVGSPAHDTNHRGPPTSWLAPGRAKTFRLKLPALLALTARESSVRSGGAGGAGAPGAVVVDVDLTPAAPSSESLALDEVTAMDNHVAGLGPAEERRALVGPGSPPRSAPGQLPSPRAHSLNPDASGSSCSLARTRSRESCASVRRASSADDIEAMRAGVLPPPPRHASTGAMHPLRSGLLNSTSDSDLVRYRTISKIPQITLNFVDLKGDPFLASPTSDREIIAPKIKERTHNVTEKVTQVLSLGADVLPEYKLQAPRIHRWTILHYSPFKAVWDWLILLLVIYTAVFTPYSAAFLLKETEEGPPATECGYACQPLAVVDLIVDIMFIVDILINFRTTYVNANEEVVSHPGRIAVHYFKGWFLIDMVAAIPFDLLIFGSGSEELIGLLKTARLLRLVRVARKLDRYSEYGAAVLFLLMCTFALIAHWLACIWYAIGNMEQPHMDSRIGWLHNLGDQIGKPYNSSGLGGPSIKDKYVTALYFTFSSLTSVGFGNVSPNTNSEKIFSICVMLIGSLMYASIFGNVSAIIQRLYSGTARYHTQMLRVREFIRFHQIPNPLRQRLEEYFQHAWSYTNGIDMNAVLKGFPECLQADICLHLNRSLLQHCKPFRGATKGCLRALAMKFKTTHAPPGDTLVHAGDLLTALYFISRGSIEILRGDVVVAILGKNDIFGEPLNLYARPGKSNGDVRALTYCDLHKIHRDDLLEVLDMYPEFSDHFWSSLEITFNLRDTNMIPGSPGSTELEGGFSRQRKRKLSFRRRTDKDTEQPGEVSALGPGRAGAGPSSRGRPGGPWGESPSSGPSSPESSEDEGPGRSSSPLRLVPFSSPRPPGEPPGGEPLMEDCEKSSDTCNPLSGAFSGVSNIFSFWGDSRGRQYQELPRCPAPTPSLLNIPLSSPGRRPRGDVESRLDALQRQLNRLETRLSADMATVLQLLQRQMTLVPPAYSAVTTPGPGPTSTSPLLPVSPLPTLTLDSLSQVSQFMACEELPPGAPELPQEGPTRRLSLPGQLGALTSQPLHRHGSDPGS

Results on one compound are retold here after article doi:10.1101/2021.05.05.442828v1 (biorxiv, 2021).

Chain of TRPM8 (hTRPM8) (Q7Z2W7 whole entry): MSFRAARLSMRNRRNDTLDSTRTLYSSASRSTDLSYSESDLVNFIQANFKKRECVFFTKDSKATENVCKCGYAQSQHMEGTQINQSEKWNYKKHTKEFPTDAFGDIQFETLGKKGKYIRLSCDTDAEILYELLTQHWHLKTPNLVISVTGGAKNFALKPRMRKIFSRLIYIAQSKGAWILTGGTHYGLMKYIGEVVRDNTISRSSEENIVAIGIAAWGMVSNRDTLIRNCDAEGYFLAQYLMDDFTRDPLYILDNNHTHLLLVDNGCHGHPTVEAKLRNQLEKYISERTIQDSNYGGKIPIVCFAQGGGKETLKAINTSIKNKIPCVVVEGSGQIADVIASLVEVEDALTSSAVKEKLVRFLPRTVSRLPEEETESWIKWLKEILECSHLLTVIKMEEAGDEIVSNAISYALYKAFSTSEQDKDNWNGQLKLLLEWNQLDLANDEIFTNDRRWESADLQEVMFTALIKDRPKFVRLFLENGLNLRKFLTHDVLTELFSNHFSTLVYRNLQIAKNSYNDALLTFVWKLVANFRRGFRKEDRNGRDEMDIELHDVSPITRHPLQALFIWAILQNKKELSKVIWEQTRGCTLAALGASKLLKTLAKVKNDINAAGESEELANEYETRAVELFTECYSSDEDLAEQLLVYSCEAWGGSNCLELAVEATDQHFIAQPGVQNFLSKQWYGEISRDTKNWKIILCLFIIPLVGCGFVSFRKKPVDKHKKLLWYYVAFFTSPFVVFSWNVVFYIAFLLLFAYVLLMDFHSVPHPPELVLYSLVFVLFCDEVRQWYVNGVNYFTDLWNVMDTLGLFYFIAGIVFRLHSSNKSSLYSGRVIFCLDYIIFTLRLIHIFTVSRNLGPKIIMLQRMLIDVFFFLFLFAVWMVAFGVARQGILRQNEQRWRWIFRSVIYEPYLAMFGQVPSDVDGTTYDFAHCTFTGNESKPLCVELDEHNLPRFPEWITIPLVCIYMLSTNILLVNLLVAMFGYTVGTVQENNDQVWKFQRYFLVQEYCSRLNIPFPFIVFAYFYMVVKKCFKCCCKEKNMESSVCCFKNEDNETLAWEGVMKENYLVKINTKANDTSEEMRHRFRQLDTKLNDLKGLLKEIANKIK
Chain of KCa1.1 (hKCa1.1, KCNMA) (Q12791 whole entry): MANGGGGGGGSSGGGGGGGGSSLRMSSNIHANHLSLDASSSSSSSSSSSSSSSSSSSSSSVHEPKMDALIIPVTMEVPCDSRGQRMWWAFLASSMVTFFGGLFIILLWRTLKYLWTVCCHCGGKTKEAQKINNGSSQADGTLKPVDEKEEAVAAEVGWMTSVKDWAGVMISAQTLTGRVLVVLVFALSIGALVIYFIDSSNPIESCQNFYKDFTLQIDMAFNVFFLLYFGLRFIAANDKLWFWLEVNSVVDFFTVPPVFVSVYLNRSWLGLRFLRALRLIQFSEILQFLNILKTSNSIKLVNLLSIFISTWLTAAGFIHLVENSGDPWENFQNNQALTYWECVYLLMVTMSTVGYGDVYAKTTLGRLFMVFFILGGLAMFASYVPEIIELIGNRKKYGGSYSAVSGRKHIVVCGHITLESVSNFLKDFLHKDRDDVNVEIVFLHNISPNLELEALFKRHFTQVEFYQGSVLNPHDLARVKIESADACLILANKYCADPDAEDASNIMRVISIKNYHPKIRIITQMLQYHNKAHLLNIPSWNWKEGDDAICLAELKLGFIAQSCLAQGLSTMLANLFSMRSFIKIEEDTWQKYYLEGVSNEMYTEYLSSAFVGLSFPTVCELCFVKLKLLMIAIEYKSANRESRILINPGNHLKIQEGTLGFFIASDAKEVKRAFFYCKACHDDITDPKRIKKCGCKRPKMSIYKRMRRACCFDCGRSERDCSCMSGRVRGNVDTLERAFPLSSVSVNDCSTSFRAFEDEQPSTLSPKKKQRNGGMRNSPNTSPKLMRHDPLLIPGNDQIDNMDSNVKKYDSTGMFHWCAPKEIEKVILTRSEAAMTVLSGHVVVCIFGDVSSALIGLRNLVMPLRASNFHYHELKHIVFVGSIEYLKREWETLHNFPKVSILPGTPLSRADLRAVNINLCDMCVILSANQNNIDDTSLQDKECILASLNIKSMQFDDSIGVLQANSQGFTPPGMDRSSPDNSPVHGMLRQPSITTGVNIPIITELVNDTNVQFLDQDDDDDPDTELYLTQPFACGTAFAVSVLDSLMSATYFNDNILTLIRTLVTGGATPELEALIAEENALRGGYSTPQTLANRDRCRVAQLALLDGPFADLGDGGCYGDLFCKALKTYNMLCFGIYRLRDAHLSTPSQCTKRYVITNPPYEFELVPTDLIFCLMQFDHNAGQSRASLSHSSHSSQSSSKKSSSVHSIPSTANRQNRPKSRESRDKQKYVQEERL

Broadly, the % inhibition is the relative decrease from the control value, in per cent. Broadly, the IC50 is the concentration at which inhibition is half-maximal. On to `COc1c(I)cc(CCN)cc1I` [DIMTA, 2-(3,5-diiodo-4-methoxyphenyl)ethan-1-amine], for which the “% inhibition at 5 μM” value at KCa1.1 (hKCa1.1, KCNMA) was found to be 18 ± 5%. Besides, the IC50 was 112 µM on TRPM8 (hTRPM8) and 18.7 ± 0.1 µM against KV11.1 (hERG).
